Among the data in US7507748B2, “Substituted aryl-amine derivatives and methods of use” (Amgen Inc., priority 2004, dated 2009) are IC50 values, retold here.

In the test the test system is Human Umbilical Vein Endothelial cells. In words: VEGF-stimulated HUVEC proliferation assay. To be noted: 72 h, CyQuant, read-out: inhibited VEGF-stimulated HUVEC proliferation at a level. It counts as cell-based. On the procedure: Human Umbilical Vein Endothelial cells are purchased from Clonetics, Inc., as cryopreserved cells harvested from a pool of donors. These cells, at passage 1, are thawed and expanded in EBM-2 complete medium, until passage 2 or 3. The cells are trypsinized, washed in DMEM+10% FBS+antibiotics, and spun at 1000 rpm for 10 min. Prior to centrifugation of the cells, a small amount is collected for a cell count. After centrifugation, the medium is discarded, and the cells are resuspended in the appropriate volume of DMEM+10% FBS+antibiotics to achieve a concentration of 3×10^5 cells/mL. Another cell count is performed to confirm the cell concentration. The cells are diluted to 3×10^4 cells/mL in DMEM+10% FBS+antibiotics, and 100 μL of cells are added to a 96-well plate. The cells are incubated at 37° C. for 22 h.
Prior to the completion of the incubation period, compound dilutions are prepared. Five-point, five-fold serial dilutions are prepared in DMSO, at concentrations 400-fold greater than the final concentrations desired. 2.5 μL of each compound dilution are diluted further in a total of 1 mL DMEM+10% FBS+antibiotics (400× dilution). Medium containing 0.25% DMSO is also prepared for the 0 μM compound sample. At the 22-hour timepoint, the medium is removed from the cells, and 100 μL of each compound dilution is added. The cells are incubated at 37° C. for 2-3 h.
During the compound pre-incubation period, the growth factors are diluted to the appropriate concentrations. Solutions of DMEM+10% FBS+antibiotics, containing either VEGF or bFGF at the following concentrations: 50, 10, 2, 0.4, 0.08, and 0 ng/mL are prepared. For the compound-treated cells, solutions of VEGF at 550 ng/mL or bFGF at 220 ng/mL for 50 ng/mL or 20 ng/mL final concentrations, respectively, are prepared since 10 μL of each will be added to the cells (110 μL final volume). At the appropriate time after adding the compounds, the growth factors are added. VEGF is added to one set of plates, while bFGF is added to another set of plates. For the growth factor control curves, the media on wells B4-G6 of plates 1 and 2 are replaced with media containing VEGF or bFGF at the varying concentrations (50-0 ng/mL). The cells are incubated at 37° C. for an additional 72 h.
At the completion of the 72 h incubation period, the medium is removed, and the cells are washed twice with PBS. After the second wash with PBS, the plates are tapped gently to remove excess PBS, and the cells are placed at −70° C. for at least 30 min. The cells are thawed and analyzed using the CyQuant fluorescent dye (Molecular Probes C-7026), following the manufacturer's recommendations. The plates are read on a Victor/Wallac 1420 workstation at 485 nm/530 nm (excitation/emission). Raw data are collected and analyzed using a 4-parameter fit equation in XLFit. IC50 values are then determined.
For `O=C(Nc1ccc(N2CCC2)nc1)c1cccnc1Nc1ccc2ccncc2c1` [Example 45, N-(6-Azetidin-1-yl-pyridin-3-yl)-2-(isoquinolin-7-ylamino)-nicotinamide], the IC50 was under 1000 nM.
In the case of `O=C(Nc1ccc(C(F)(F)F)cc1)c1cccnc1Nc1ccc2ccncc2c1` [Example 12, 2-(Isoquinolin-7-ylamino)-N-(4-trifluoromethyl-phenyl)-nicotinamide] it was under 1000 nM; in that of `Cc1ccc(NC(=O)c2cccnc2Nc2ccc3nc(N)ncc3c2)cc1Cl` [Example 64, 2-(2-aminoquinazolin-6-ylamino)-N-(3-chloro-4-methylphenyl)nicotinamide], under 1000 nM.
In the case of `CC(C)(C)c1ccc(NC(=O)c2cccc(F)c2Nc2ccc3ccncc3c2)cc1` [Example 29, N-(4-tert-Butyl-phenyl)-3-fluoro-2-(isoquinolin-7-ylamino)-benzamide] it was under 1000 nM; in that of `O=C(Nc1ccc(C(F)(F)C(F)(F)F)cc1)c1cccnc1Nc1ccc2ccncc2c1` [Example 11, 2-(Isoquinolin-7-ylamino)-N-(4-pentafluoroethyl-phenyl)-nicotinamide], under 1000 nM; in that of `Cc1cc(NC(=O)c2cccnc2Nc2ccc3ccncc3c2)ccc1C(C)C` [Example 49, N-(4-Isopropyl-3-methyl-phenyl)-2-(isoquinolin-7-ylamino)-nicotinamide], under 1000 nM.
In the case of `O=C(Nc1ccc(N2CCC2)cn1)c1cccnc1Nc1ccc2ccncc2c1` [Example 47, N-(5-Azetidin-1-yl-pyridin-2-yl)-2-(isoquinolin-7-ylamino)-nicotinamide] it was under 1000 nM.
With `COC(c1ccc(NC(=O)c2cccnc2Nc2ccc3ccncc3c2)cc1)(C(F)(F)F)C(F)(F)F` [Example 10, 2-(Isoquinolin-7-ylamino)-N-[4-(2,2,2-trifluoro-1-methoxy-1-trifluoromethyl-ethyl)-phenyl]-nicotinamide], the IC50 was under 1000 nM.
As for `CC1(C)CC(=O)Nc2nc(NC(=O)c3cccnc3Nc3ccc4ncncc4c3)ccc21` [Example 59, N-(5,5-dimethyl-7-oxo-5,6,7,8-tetrahydro-1,8-naphthyridin-2-yl)-2-(quinazolin-6-ylamino)nicotinamide], the IC50 was under 1000 nM.
The figure for `CC(C)(C)c1cc(NC(=O)c2cccnc2Nc2cccc3cnccc23)on1` [Example 71, N-(3-tert-butylisoxazol-5-yl)-2-(isoquinolin-5-ylamino)nicotinamide] is under 1000 nM; for `Cc1cc(NC(=O)c2cccnc2Nc2ccc3nc(N)ncc3c2)ccc1C(C)C` [Example 63, 2-(2-aminoquinazolin-6-ylamino)-N-(3-methyl-4-(1-methylethyl)phenyl)nicotinamide] it is under 1000 nM; for `CC1(C)CNCc2cc(NC(=O)c3cccnc3Nc3ccc4c(c3)OC(F)(F)O4)ccc21` [Example 22, 2-(2,2-Difluoro-benzo[1,3]dioxol-5-ylamino)-N-(4,4-dimethyl-1,2,3,4-tetrahydro-isoquinolin-7-yl)-nicotinamide] it is under 1000 nM.
In the case of `CC(C)(C)c1ccc(NC(=O)c2ccccc2Nc2ccc3ccncc3n2)cc1` [Example 76, N-(4-tert-Butyl-phenyl)-2-([1,7]naphthyridin-2-ylamino)-benzamide] it was under 1000 nM; in that of `CC1(C)CN(C(=O)CN)Cc2cc(NC(=O)c3cccnc3Nc3ccc4ccncc4c3)ccc21` [Example 75, N-[2-(2-Amino-acetyl)-4,4-dimethyl-1,2,3,4-tetrahydro-isoquinolin-7-yl]-2-(isoquinolin-7-ylamino)-nicotinamide], under 1000 nM.
With `CNc1ncnc2ccc(Nc3ncccc3C(=O)Nc3ccc4c(c3)CN(C(C)=O)CC4(C)C)cc12` [Example 16, N-(2-Acetyl-4,4-dimethyl-1,2,3,4-tetrahydro-isoquinolin-7-yl)-2-(4-methylamino-quinazolin-6-ylamino)-nicotinamide], the IC50 is under 1000 nM.
